Measured values published in US4450269A, “Mono-5-substituted-3-chloro-4H-1,2,6-thiadiazin-4-one antifungal agents” (FMC Corporation, priority 1980, dated 1984).

System: Fusarium solani
Test: Mycelial growth test
Type: cell-based
Conditions: for inhibition at 5 ppm / inhibition at 10 ppm / inhibition at 20 ppm / inhibition at 40 ppm: Fusarium solani, 72 h; for inhibition at 5 ppm / inhibition at 10 ppm / inhibition at 20 ppm / Percent Fungus Growth Inhibition: PS, 72 hours; for inhibition at 5 ppm / inhibition at 10 ppm / inhibition at 20 ppm: read-out: Percent Fungus Growth Inhibition; for inhibition at 40 ppm: read-out: Percent Fungus Growth Inhibition, PS, 40 ppm, 72 hours

Molecule	inhibition at 5 ppm (5 ppm)	inhibition at 10 ppm (10 ppm)	inhibition at 20 ppm (20 ppm)	inhibition at 40 ppm	Percent Fungus Growth Inhibition (5 ppm)	Percent Fungus Growth Inhibition (10 ppm)	Percent Fungus Growth Inhibition (20 ppm)	Percent Fungus Growth Inhibition (40 ppm)
Cc1cc(Oc2nsnc(Cl)c2=O)cc(C)c1Br [Compound 60, 3-[(4-bromo-3,5-dimethyl)-phenoxy]-5-chloro-4H--1,2,6-thiadiazin-4-one]	63%	50%	56%	75%				
3-chloro-5-(bromophenoxy)-4H-1,2,6-thiadiazin-4-one [Compound 33]					3%	33%	53%	93%
O=C(Nc1ccccc1)Oc1ccc(Oc2nsnc(Cl)c2=O)cc1 [Compound 37, 3-chloro-5-[4-(phenylaminocarbonyloxy)phenoxy]-4H-1,2,6,-thiadiazin-4-one]	26%	16%	26%	42%				
O=C(O)c1ccc(Oc2nsnc(Cl)c2=O)cc1 [Compound 50, 3-(4-carboxyphenoxy)-5-chloro-4H--1,2,6-thiadiazin-4-one]	25%	38%	63%	100%				
O=c1c(Cl)nsnc1Oc1ccc(F)cc1 [Compound 11, 3-chloro-5-(4-fluorophenoxy)-4H--1,2,6-thiadiazin-4-one]	17%	33%	83%	75%				
CC(=O)c1ccc(Oc2nsnc(Cl)c2=O)cc1 [Compound 47, 3-(4-acetylphenoxy)-5-chloro-4H--1,2,6-thiadiazin-4-one]	38%	50%	100%	100%				
CC(=O)c1cccc(Oc2nsnc(Cl)c2=O)c1 [Compound 48, 3-(3-acetylphenoxy)-5-chloro-4H--1,2,6-thiadiazin-4-one]	38%	50%	100%	100%				
O=c1c(Cl)nsnc1Oc1ccc([N+](=O)[O-])cc1 [Compound 9, 3-chloro-5-(4-nitrophenoxy)-4H--1,2,6-thiadiazin-4-one]	65%	76%	53%	100%				
3-chloro-5-[methylaminocarbonyloxy)phenoxyl]-4H-1,2,6-thiadiazin-4-one [Compound 36]					30%	45%	60%	90%
O=c1c(Cl)nsnc1Oc1cccc(Cl)c1 [Compound 13, 3-chloro-5-(3-chlorophenoxy)-4H--1,2,6-thiadiazin-4-one]	38%	50%	72%	100%				
Cc1cc(Oc2nsnc(Cl)c2=O)cc(C)c1Cl [Compound 59, 3-chloro-5-[(4-chloro-3,5-dimethyl)phenoxy]-4H--1,2,6-thiadiazin-4-one]	50%	56%	69%	56%				
Cc1cc(Oc2nsnc(Cl)c2=O)ccc1Cl [Compound 54, 3-chloro-5-(4-chloro-3-methylphenoxy)-4H--1,2,6-thiadiazin-4-one]	27%	30%	20%	20%				
Cc1cc(Cl)ccc1Oc1nsnc(Cl)c1=O [Compound 55, 3-chloro-5-(4-chloro-2-methylphenoxy)-4H--1,2,6-thiadiazin-4-one]	0%	13%	17%	20%				
N#Cc1ccc(Oc2nsnc(Cl)c2=O)cc1 [Compound 10, 3-chloro-5-(4-cyanophenoxy)-4H--1,2,6-thiadiazin-4-one]	17%	33%	50%	75%				
O=c1c(Cl)nsnc1Oc1ccc(Cl)cc1Cl [Compound 17, 3-chloro-5-(2,4-dichlorophenoxy)-4H--1,2,6-thiadiazin-4-one]	50%	75%	100%	100%				
Cc1cc(Cl)c(Oc2nsnc(Cl)c2=O)cc1C [Compound 58, 3-chloro-5-[(2-chloro-4,5-dimethyl)phenoxy]-4H--1,2,6-thiadiazin-4-one]	56%	56%	56%	44%				
O=c1c(Cl)nsnc1Oc1cccc2ccccc12 [Compound 32, 3-chloro-5(1-naphthoxy)-4H-1,2,6-thiadiazin-4-one]	100%	100%	100%	100%				
CC(C)(C)c1ccc(Oc2nsnc(Cl)c2=O)cc1 [Compound 4, 3-chloro-5-(4-tert-butylphnoxy)-4H--1,2,6-thiadiazin-4-one]	0%	0%	0%	8%				
Cc1ccc(Cl)c(Oc2nsnc(Cl)c2=O)c1 [Compound 56, 3-chloro-5-[(2-chloro-5-methyl)phenoxy]-4H--1,2,6-thiadiazin-4-one]	70%	100%	100%	100%				
O=c1c(Cl)nsnc1Oc1ccc(Cl)c(Cl)c1 [Compound 16, 3-chloro-5-(3,4-dichlorophenoxy)-4H--1,2,6-thiadiazin-4-one]	53%	47%	47%	41%				

Molecule	inhibition at 5 ppm (5 ppm)	inhibition at 10 ppm (10 ppm)	inhibition at 20 ppm (20 ppm)	inhibition at 40 ppm	Percent Fungus Growth Inhibition (5 ppm)	Percent Fungus Growth Inhibition (10 ppm)	Percent Fungus Growth Inhibition (20 ppm)	Percent Fungus Growth Inhibition (40 ppm)
Nc1ccc(Oc2nsnc(Cl)c2=O)cc1 [Compound 26, 5-(4-aminophenoxy)-3-chloro-4H--1,2,6-thiadiazin-4-one]	13%		17%	42%		33%		
Cc1ccc(Oc2nsnc(Cl)c2=O)cc1 [Compound 3, 3-chloro-5-(4-methylphenoxy)-4H--1,2,6-thiadiazin-4-one]	35%	53%	65%	65%				
CC(=O)Nc1ccc(Oc2nsnc(Cl)c2=O)cc1 [Compound 8, 5-(4-acetylaminophenoxy)-3-chloro-4H--1,2,6-thiadiazin-4-one]	3%	41%	31%	31%				
Cc1ccc(Oc2nsnc(Cl)c2=O)c(Br)c1 [Compound 57, 3-[(2-bromo-4-methyl)-phenoxy]-5-chloro-4H--1,2,6-thiadiazin-4-one]	88%	100%	100%	100%				
O=c1c(Cl)nsnc1Oc1c(Cl)cccc1Cl [Compound 18, 3-chloro-5-(2,6-dichlorophenoxy)-4H--1,2,6-thiadiazin-4-one]	41%	50%	75%	75%				
O=c1c(Cl)nsnc1Oc1c(Cl)c(Cl)c(Cl)c(Cl)c1Cl [Compound 31, 3-chloro-5-(pentachlorophenoxy)-4H--1,2,6-thiadiazine-4-one]	42%	42%	58%	58%				
O=c1c(Cl)nsnc1Oc1ccc(Cl)cc1 [Compound 12, 3-chloro-5-(4-chlorophenoxy)-4H--1,2,6-thiadiazin-4-one]	71%	59%	65%	100%				
O=c1c(Cl)nsnc1Oc1cccc(Cl)c1Cl [Compound 19, 3-chloro-5-(2,3-dichlorophenoxy)-4H--1,2,6-thiadiazin-4-one]	50%	66%	81%	100%				
CSc1ccc(Oc2nsnc(Cl)c2=O)cc1 [Compound 39, 3-chloro-5-[(4-methylthio)phenoxy]-4H-1,2,6,-thiadiazin-4-one]	42%	79%	68%	42%				
O=c1c(Cl)nsnc1Oc1c(Cl)cc(Cl)cc1Cl [Compound 30, 3-chloro-5-(2,4,6-trichlorophenoxy)-4H--1,2,6-thiadiazin-4-one]	52%	81%	90%	100%				
CC(=O)Nc1ccccc1Oc1nsnc(Cl)c1=O [Compound 43, 3-[(2-acetylamino)-phenoxy]-5-chloro-4H--1,2,6-thiadiazin-4-one]	0%	0%	0%	0%				
CNC(=O)Nc1ccc(Oc2nsnc(Cl)c2=O)cc1 [Compound 28, 3-chloro-5-[4-(3-methylureido)-phenoxy]-4H--1,2,6-thiadiazin-4-one]	0%	17%	17%	13%				
CC(=O)c1ccccc1Oc1nsnc(Cl)c1=O [Compound 49, 3-(2-acetylphenoxy)-5-chloro-4H--1,2,6-thiadiazin-4-one]	0%	7%	34%	67%				
COc1ccc(Cl)c(Oc2nsnc(Cl)c2=O)c1 [Compound 51, 3-chloro-5-[(2-chloro-5-methoxy)phenoxy]-4H--1,2,6-thiadiazin-4-one]	60%	85%	100%	100%				
O=C(O)Cc1ccccc1Oc1nsnc(Cl)c1=O [Compound 45, 3-(2-carboxymethylphenoxy)-5-chloro-4H--1,2,6-thiadiazin-4-one]	0%	0%	6%	31%				
Cc1ccccc1Oc1nsnc(Cl)c1=O [Compound 22, 3-chloro-5-(2-methylphenoxy)-4H--1,2,6-thiadiazin-4-one]	17%	67%	83%	100%				
O=C(Nc1ccccc1)Nc1ccc(Oc2nsnc(Cl)c2=O)cc1 [Compound 29, 3-chloro-5-[4-(3-phenylureido)-phenoxy]-4H--1,2,6-thiadiazin-4-one]	0%	0%	0%	13%				
CCCCOc1ccc(Oc2nsnc(Cl)c2=O)cc1 [Compound 6, 3-chloro-5-(4-n-butoxyphenoxy)-4H--1,2,6-thiadiazin-4-one]	0%	0%	0%	13%				
Cc1ccc(Oc2nsnc(Cl)c2=O)c(C)c1 [Compound 23, 3-chloro-5-(2,4-dimethylphenoxy)-4H--1,2,6-thiadiazin-4-one]	17%	33%	100%	100%				
